Test results: ChEMBL document CHEMBL2010671, “Structure aided design of chimeric antibiotics” (Bioorg Med Chem Lett, 2012); call rule not given here
Values after ≈ are worked out from the molar mass of the structure shown.

Key:
Escherichia coli [1] = experiment: Antimicrobial activity against ciprofloxacin-, SXT-resistant Escherichia coli; format: functional
[2] = system: Staphylococcus epidermidis; experiment: Antimicrobial activity against ciprofloxacin-sensitive, SXT-resistant Staphylococcus epidermidis NRS60; format: functional
Staphylococcus aureus = experiment: Antimicrobial activity against ciprofloxacin-, SXT-sensitive Staphylococcus aureus ATCC 25923; format: functional
Pseudomonas aeruginosa = experiment: Antimicrobial activity against ciprofloxacin-sensitive, SXT-resistant Pseudomonas aeruginosa ATCC 10145; format: functional
[3] = Inhibition of DNA supercoiling activity of Escherichia coli DNA gyrase after 1 hr by agarose gel electrophoresis
Klebsiella pneumoniae = experiment: Antimicrobial activity against ciprofloxacin-sensitive, SXT-resistant Klebsiella pneumoniae ATCC 700603; format: functional
Escherichia coli [4] = experiment: Antimicrobial activity against ciprofloxacin-, SXT-sensitive Escherichia coli ATCC 25922; format: functional
[5] = Inhibition of DNA decatenation activity of Escherichia coli DNA topoisomerase 4 after 1 hr by agarose gel electrophoresis
[6] = Cytotoxicity against human HEK293 cells after 48 hrs by MTT assay; format: cell-based
HepG2 = experiment: Cytotoxicity against human HepG2 cells at 100 uM after 48 hrs by MTT assay; format: cell-based; details: hepg2, 48 h
[7] = Cytotoxicity against human HepG2 cells after 48 hrs by MTT assay; format: cell-based
HEK293 = experiment: Cytotoxicity against human HEK293 cells at 100 uM after 48 hrs by MTT assay; format: cell-based; details: hek293, 48 h
Dihydrofolate reductase = molecular target: T1, Dihydrofolate reductase (Homo sapiens, UniProt P00374); experiment: Inhibition of DHFR using dihydrofolate as substrate following 3 mins substrate preincubation measured after 3 mins by spectrophotometric analysis
T1 sequence (P00374 whole entry): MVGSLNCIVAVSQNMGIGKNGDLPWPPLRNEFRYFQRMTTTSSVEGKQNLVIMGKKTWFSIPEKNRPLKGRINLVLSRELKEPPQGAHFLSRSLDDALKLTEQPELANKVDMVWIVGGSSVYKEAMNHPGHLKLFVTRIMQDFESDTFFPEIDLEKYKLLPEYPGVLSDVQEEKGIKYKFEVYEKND

| Molecule | MIC (Escherichia coli [1]) [µg/mL] | MIC [2] [µg/mL] | MIC (Staphylococcus aureus) [µg/mL] | MIC (Pseudomonas aeruginosa) [µg/mL] | IC50 ([3]; read-out: IC50) [µM] | MIC (Klebsiella pneumoniae) [µg/mL] | MIC (Escherichia coli [4]) [µg/mL] | IC50 ([5]; read-out: IC50) [µM] | IC50 [3] | IC50 [5] | CC50 at 48 h [6] [µM] | Activity (HepG2) | CC50 at 48 h [7] [µM] | Activity (HEK293) | IC50 (Dihydrofolate reductase) [µM] |
| --- | --- | --- | --- | --- | --- | --- | --- | --- | --- | --- | --- | --- | --- | --- | --- |
| COc1cc(Cc2cnc(N)nc2N)cc2c1OCCN2 | > 64 | > 64 | 8 (≈ 27.8 µM) | > 64 | > 250 | 32 (≈ 111 µM) | 8 (≈ 27.8 µM) | > 250 | – | – | – | – | – | – | – |
| CCOC(=O)c1cn(C2CC2)c2nc(NCc3cn(Cc4cnc(N)nc4N)nn3)c(F)cc2c1=O | > 64 | > 64 | > 64 | > 64 | – | > 64 | > 64 | – | Not Active | Not Active | – | – | – | – | – |
| Nc1ncc(Cn2cc(CN3CCN(c4nc5c(cc4F)c(=O)c(C(=O)O)cn5C4CC4)CC3)nn2)c(N)n1 | > 64 | 8 (≈ 14.9 µM) | 64 (≈ 120 µM) | 64 (≈ 120 µM) | 160 | > 64 | 4 (≈ 7.47 µM) | 10.7 | – | – | – | – | – | – | – |
| C#CCNc1nc2c(cc1F)c(=O)c(C(=O)O)cn2C1CC1 | > 64 | 16 (≈ 53.1 µM) | 32 (≈ 106 µM) | > 64 | 166 | > 64 | 16 (≈ 53.1 µM) | > 250 | – | – | – | – | – | – | – |
| O=C(O)c1cn(C2CC2)c2cc(N3CCNCC3)c(F)cc2c1=O [CIPROFLOXACIN] | > 64 | 0.06 (≈ 0.181 µM) | 0.5 (≈ 1.51 µM) | ≤ 0.03 | 0.97 | 0.125 (≈ 0.377 µM) | ≤ 0.03 | 0.392 | – | – | – | – | – | – | – |
| COc1cc(Cc2cnc(N)nc2N)cc(OC)c1OC [TRIMETHOPRIM] | > 64 | > 64 | 1 (≈ 3.44 µM) | > 64 | – | 2 (≈ 6.89 µM) | 0.125 (≈ 0.431 µM) | – | – | – | – | – | – | – | – |
| COLISTIN | > 64 | 2 | 1 | ≤ 0.03 | – | < 0.03 | 0.06 | – | – | – | – | – | – | – | – |
| C#CCNc1nc2c(cc1F)c(=O)c(C(=O)OCC)cn2C1CC1 | – | – | – | – | – | – | – | – | – | – | 80 | Toxic | 80 | Toxic | – |
| Nc1ncc(CNc2nc3c(cc2F)c(=O)c(C(=O)O)cn3C2CC2)c(N)n1 | – | – | > 64 | – | – | – | > 64 | – | – | – | – | – | – | – | – |
| C#CCN1CCN(c2nc3c(cc2F)c(=O)c(C(=O)O)cn3C2CC2)CC1 | > 64 | 0.5 (≈ 1.35 µM) | 0.25 (≈ 0.675 µM) | 8 (≈ 21.6 µM) | 10 | 8 (≈ 21.6 µM) | 0.25 (≈ 0.675 µM) | 4.4 | – | – | – | – | – | – | – |
| COc1cc(Cc2cnc(Nc3nc4c(cc3F)c(=O)c(C(=O)O)cn4C3CC3)nc2N)cc2c1OCCN2 | > 64 | > 64 | > 64 | > 64 | – | > 64 | > 64 | – | – | – | – | – | – | – | – |
| Nc1ncc(COCc2cn(-c3nc4c(cc3F)c(=O)c(C(=O)O)cn4C3CC3)nn2)c(N)n1 | > 64 | 4 (≈ 8.56 µM) | 4 (≈ 8.56 µM) | > 64 | 48 | 16 (≈ 34.2 µM) | 0.5 (≈ 1.07 µM) | 4.5 | – | – | – | – | – | – | > 250 |
| [N-]=[N+]=Nc1nc2c(cc1F)c(=O)c(C(=O)O)cn2C1CC1 | > 64 | 4 (≈ 13.8 µM) | 16 (≈ 55.3 µM) | > 64 | 17 | 64 (≈ 221 µM) | 2 (≈ 6.92 µM) | > 250 | – | – | – | – | – | – | – |
| COc1cc(Cc2cnc(N)nc2Nc2nc3c(cc2F)c(=O)c(C(=O)O)cn3C2CC2)cc2c1OCCN2 | > 64 | > 64 | > 64 | > 64 | – | > 64 | > 64 | – | – | – | – | – | – | – | – |
